According to patent US20040044037A1, “Amidino-urea serotonin receptor ligands and compositions, their pharmaceutical uses, and methods for their snythesis” (priority 2003, published 2004):
Read-outs that look alike come from different tables or passages of the source.

How the values were obtained:
human 5-HT1a receptors = biological target: T1, human 5-HT1a receptors (Homo sapiens, UniProt P08908); assay: Competition radioligand binding, h5-HT1a
T1 construct: expressed in transfected cells; host or cells: CHO K1 cells
T1 sequence (P08908 1-422): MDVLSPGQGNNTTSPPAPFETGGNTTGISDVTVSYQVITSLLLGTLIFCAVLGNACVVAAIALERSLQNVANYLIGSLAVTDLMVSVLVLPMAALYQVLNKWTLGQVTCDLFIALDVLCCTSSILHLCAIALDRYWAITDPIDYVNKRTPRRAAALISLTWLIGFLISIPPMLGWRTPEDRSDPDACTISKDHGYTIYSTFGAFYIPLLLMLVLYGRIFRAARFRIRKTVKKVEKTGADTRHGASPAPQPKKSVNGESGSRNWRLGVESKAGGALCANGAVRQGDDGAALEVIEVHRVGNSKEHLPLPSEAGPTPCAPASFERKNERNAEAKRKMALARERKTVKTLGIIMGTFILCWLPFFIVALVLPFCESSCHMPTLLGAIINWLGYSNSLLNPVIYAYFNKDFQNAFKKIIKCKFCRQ
Experimental: (§1) Cells and Membrane Preparation: HEK 293 cells stably expressing human 5-HT7B (h5-HT7b) receptors were grown in Dulbecco's Modified Eagle's Medium (DMEM; Gibco) without sodium pyruvate and containing 4.5 g/L glucose, L-glutamine/penicillin-streptomycin (Gemini), 10% fetal bovine serum and 250 mg/l of the antibiotic, G418 (Geneticin) as previously described (Jasper, J. R., Kosaka, A., To, Z. P., Chang, D. J. and Eglen, R. M. (1997) Cloning, expression and pharmacology of a truncated splice variant of the human 5-ht7 receptor (h5-ht7b). Br. J. Pharmacol. 122(1):126-132.). Cell pellets were homogenized in approximately 50 mL of homogenization buffer (buffer A) containing: 50 mM Tris (pH 7.4), 2 mM EGTA, 0.32 M sucrose, 10 μM PMSF, 1 μg/mL leupeptin, 5 μg/mL Pepstatin A, and 5 μg/mL aprotinin using an UltraTurax homogenizer (Tekmar Company, Cincinnati, Ohio) at 80% maximum setting three times for 10 sec. Cell pellets were centrifuged at 4° C. at 1,500×g for 10 min in a Beckman GS-6R centrifuge. Pellets were resuspended in buffer A, homogenized and centrifuged as described above. Pooled supernatants were transferred to centrifuge bottles and centrifuged at 4° C. at 20,000×g for 30 min in a Beckman J2-HS centrifuge. Cell pellets were resuspended in buffer A and were centrifuged at 4° C. at 20,000×g for 30 min. Cell pellets were resuspended in buffer A and stored at −70° C. in aliquots of 2.5 mg/mL total membrane protein. Total membrane protein was assessed utilizing a BCA kit (Pierce; Rockford, Ill.). Membranes containing human 5-HT1a or 5HT2a receptors expressed in CHO K1 cells were prepared as described above.
(§2) Radioligand Binding Assays: For 5-HT7 saturation binding experiments, HEK-293 cell membranes expressing h5-HT7 receptors (5-10 μg membrane protein/well) were incubated in duplicate with [^3H]5-CT (approximately 0.2 nM) in binding assay buffer containing: 50 mM HEPES (pH 7.4), 0.5 mM EDTA, 10 mM MgCl2, 10 μM pargyline to inhibit monoamine oxidase activity, and 0.1% sodium ascorbate, in a final volume of 200 μL in 96-well polypropylene plates for 2 hours at 37° C. Nonspecific binding was determined by incubating membranes with 1 μM 5-HT. All radioligand binding assays were stopped by rapid filtration onto 96-well GF/C filter plates (Packard) soaked in 0.1% polyethylenimine. Filters were washed three times with ice-cold phosphate-buffered saline (PBS) wash buffer containing 50 mM NaPO4 (pH 7.4), 0.9% NaCl, 2 mM MgCl2 and 0.02% NaN3. The filters were then counted using liquid scintillation in a Packard Topcount scintillation counter.
(§3) Data Analysis: Radioligand binding experiments were analyzed with Prism™ (Graphpad, San Diego, Calif.), a computer graphics and statistics program. IC50 values and Hill slopes for compounds were generated by nonlinear regression using Prism™. Values for Ki calculated from IC50 values by the Cheng and Prussoff equation (Cheng, Y. and Prusoff, W. H., (1973), “Relationship between the inhibition constant (Ki) and the concentration of inhibitor which causes 50 per cent inhibition (I50) of an enzymatic reaction.” Biochemical Pharmacol. 22:3099-3108).

[1] = biological target: T2, human 5-HT6 (h5-HT6) receptors (Homo sapiens, UniProt P50406); assay: Competition radioligand binding, h5-HT6
T2 construct: purchased Receptor Biology, Inc. (Beltsville, Md.); host or cells: HEK-293 cells
T2 sequence (P50406 whole entry): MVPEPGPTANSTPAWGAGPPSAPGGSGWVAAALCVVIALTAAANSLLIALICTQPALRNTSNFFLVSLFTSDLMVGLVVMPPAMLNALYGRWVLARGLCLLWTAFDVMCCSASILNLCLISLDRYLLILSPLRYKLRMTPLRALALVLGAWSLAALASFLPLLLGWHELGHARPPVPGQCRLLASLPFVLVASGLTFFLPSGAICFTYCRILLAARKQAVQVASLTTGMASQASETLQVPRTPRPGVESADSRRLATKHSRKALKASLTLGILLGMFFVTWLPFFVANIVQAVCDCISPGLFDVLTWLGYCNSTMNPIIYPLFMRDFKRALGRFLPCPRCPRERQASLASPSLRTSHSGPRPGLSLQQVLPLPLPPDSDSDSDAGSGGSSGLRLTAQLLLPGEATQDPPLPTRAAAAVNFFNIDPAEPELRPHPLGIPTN

[2] = biological target: T3, human 5-HT7B (h5-HT7b) receptors (Homo sapiens, UniProt P34969); assay: Competition radioligand binding, h5-HT7b
T3 construct: expressed in transfected cells
T3 sequence (P34969 1-432 limits assumed): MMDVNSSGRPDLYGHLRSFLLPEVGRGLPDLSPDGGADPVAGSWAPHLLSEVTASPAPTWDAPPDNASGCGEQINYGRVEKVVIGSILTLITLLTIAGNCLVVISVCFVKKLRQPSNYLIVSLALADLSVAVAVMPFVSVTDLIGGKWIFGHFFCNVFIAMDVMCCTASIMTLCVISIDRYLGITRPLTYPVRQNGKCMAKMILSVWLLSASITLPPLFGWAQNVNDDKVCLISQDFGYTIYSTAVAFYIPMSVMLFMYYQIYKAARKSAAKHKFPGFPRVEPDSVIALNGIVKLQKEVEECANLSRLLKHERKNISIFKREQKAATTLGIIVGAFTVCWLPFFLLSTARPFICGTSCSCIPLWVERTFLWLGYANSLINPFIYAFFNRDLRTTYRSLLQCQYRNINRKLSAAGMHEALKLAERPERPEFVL
Excerpt: The compounds of the invention interact with 5-HT receptors and show selectivity for 5-HT receptors. The 5-HT receptor binding properties of the compounds are identified by competitive radioligand binding assays wherein membranes prepared from transfected cells expressing the 5-HT receptor subtype of interest. “Binding constants” refers herein to Ki values measured by inhibition of the binding of radiolabelled ligands that are selective for the 5-HT receptor type being studied. For 5-HT7 receptors, Ki values are determined by measuring the inhibition of 5-carboxamidotryptamine (5-CT) binding, wherein 5-HT7 receptors were incubated with the radiolabelled high affinity ligand, 5-carboxamidotryptamine ([^3H]5-CT), in the presence and absence of the compounds of the invention, at varying concentrations. The compounds of the invention have high binding affinity for serotonin receptors as measured by dissociation constant Ki. […] “Selectivity” for receptor type, in the context of this invention, refers to the ratio of binding constants for the two receptor types being compared. […] The compounds of the present invention preferably show selectivity for 5-HT7 receptors over other serotonin receptor subtypes of greater than about 100. The compounds of the present invention also preferably show selectivity for 5-HT7 receptors over other receptor types, such as dopamine D2, of greater than about 100.
as §1
as §2, with “counter. […]” for “counter.”

[3] = biological target: T4, human D2S dopamine (hD2S-DA) receptors (Homo sapiens, UniProt P14416); assay: Competition radioligand binding, hD2S dopamine
T4 construct: purchased Receptor Biology, Inc. (Beltsville, Md.); host or cells: A9 L cells
T4 sequence (P14416 1-414 isoform P14416-2): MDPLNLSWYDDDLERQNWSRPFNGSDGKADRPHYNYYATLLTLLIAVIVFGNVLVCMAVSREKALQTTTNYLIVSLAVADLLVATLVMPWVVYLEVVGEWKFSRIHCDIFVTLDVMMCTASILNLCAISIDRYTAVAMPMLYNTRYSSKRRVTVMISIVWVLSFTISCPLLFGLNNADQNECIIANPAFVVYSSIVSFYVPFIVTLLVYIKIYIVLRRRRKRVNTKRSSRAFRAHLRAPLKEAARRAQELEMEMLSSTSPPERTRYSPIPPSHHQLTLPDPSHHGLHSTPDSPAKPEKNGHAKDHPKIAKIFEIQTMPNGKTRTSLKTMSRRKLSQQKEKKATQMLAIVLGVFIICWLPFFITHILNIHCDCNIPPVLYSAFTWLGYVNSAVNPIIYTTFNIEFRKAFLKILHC

human 5HT2a receptors = biological target: T5, human 5HT2a receptors (Homo sapiens, UniProt P28223); assay: Competition radioligand binding, 5-HT2A
T5 construct: expressed in transfected cells; host or cells: CHO K1 cells
T5 sequence (P28223 whole entry): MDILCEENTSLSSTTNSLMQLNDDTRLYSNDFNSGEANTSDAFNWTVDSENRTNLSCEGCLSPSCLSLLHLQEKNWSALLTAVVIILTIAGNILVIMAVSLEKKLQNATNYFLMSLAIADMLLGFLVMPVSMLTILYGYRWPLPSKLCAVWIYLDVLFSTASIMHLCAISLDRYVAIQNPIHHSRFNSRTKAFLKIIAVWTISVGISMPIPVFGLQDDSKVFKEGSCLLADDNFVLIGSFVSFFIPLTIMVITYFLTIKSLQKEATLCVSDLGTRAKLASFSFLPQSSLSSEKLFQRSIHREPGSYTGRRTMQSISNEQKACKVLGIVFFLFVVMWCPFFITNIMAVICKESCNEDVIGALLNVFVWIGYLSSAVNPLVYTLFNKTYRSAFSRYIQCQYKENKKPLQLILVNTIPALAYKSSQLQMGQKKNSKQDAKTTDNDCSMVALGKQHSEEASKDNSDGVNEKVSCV
Experimental: as §1, §2, §3

[4] = [3H]5-CT, membranes of CHO K1 cells, read-out: Ki 5-HT1A
[5] = [3H]LSD, membranes of HEK-293 cells, read-out: Ki 5-HT6
[6] = [3H]5-CT, membranes of HEK 293 cells, read-out: Ki 5-HT7
[7] = [3H]Spiperone, membranes of A9 L cells, read-out: Ki D2
[8] = [3H]Ketanserin, membranes of CHO K1 cells, read-out: Ki 5-HT2A

SMILES | Ki (human 5-HT1a receptors; [4]) | Ki [1, 5] | Ki [2, 6] | Ki [3, 7] | Ki (human 5HT2a receptors; [8]) | Ki (human 5-HT1a receptors) | Ki [1] | Ki [2] | Ki [3] | Ki (human 5HT2a receptors)
COc1ccccc1CN1CCN(C(=O)NC(=N)NCc2cccc3ccccc23)CC1 [Example 5, N-{[4-(2-Methoxybenzyl)-1-piperazinyl]carbonyl}-N′-(1-naphthylmethyl)guanidine] | 2390 nM | 1960 nM | 26 nM | 2010 nM | 46 nM |  |  |  |  | 
N=C(NCc1cccc2ccccc12)NC(=O)NC1CCN(Cc2ccccc2)CC1 [Example 6, 1-Benzyl-4-{[({imino[(1-naphthylmethyl)amino]methyl}amino)carbonyl]amino}piperidine] | 770 nM | 8630 nM | 68 nM | 1050 nM | 13 nM |  |  |  |  | 
N=C(NCc1cccc2ccccc12)NC(=O)N1CCN(Cc2ccccc2)CC1 [Example 7, N-[(4-Benzyl-1-piperazinyl)carbonyl]-N′-(1-naphthylmethyl)guanidine] | 1690 nM | > 10000 nM | 1.4 nM | 770 nM | 43 nM |  |  |  |  | 
N=C(NCc1cccc2ccccc12)NC(=O)N1CCC(C(N)=O)CC1 [Example 8, 1-[({imino[(1-naphthylmethyl)amino]methyl}amino)carbonyl]-4-piperidinecarboxamide] | > 4000 nM | > 10000 nM | 12 nM | > 2500 nM | 40 nM |  |  |  |  | 
COc1ccccc1N1CCN(C(=O)NC(=N)NCc2cccc3ccccc23)CC1 [Example 21, N-{[4-(2-Methoxyphenyl)-1-piperazinyl]carbonyl}-N′-(1-naphthylmethyl)guanidine] | 520 nM | > 10000 nM | 6 nM | 900 nM | 150 nM |  |  |  |  | 
N=C(NCc1cccc2ccccc12)NC(=O)N[C@H]1C[C@@H]2CC[C@H]1C2 [Example 23, 1-({[({[(1S,2S,4R)Bicyclo[2.2.1]hept-2-ylamino]carbonyl}amino) (imino)methyl]amino}methyl)naphthalene] | 220 nM | 1930 nM | 9.7 nM | 280 nM | 4 nM |  |  |  |  | 
N=C(NCc1cccc2ccccc12)NC(=O)N1CCN(C/C=C/c2ccccc2)CC1 [Example 24, N-(1-Naphthylmethyl)-N′-({4-[(E)-3-phenyl-2-propenyl]-1-piperazinyl}carbonyl)guanidine] | 2620 nM | 1910 nM | 3.2 nM | 820 nM | 78 nM |  |  |  |  | 
N=C(NCc1cccc2ccccc12)NC(=O)N1CCC(Nc2ccccc2)CC1 [Example 25, N-[(4-Anilino-1-piperidinyl)carbonyl]-N-(1-naphthylmethyl)guanidine] |  |  |  |  |  | 2590 nM | > 10000 nM | 7.4 nM | 1470 nM | 120 nM
N=C(NCc1cccc2ccccc12)NC(=O)N1CCC(Cc2ccccc2)CC1 [Example 29, N-[(4-Benzyl-1-piperidinyl)carbonyl]-N′-(1-naphthylmethyl)guanidine] | 2690 nM | > 10000 nM | 16 nM | > 2500 nM | 170 nM |  |  |  |  | 
N=C(NCc1cccc2ccccc12)NC(=O)N[C@@H](Cc1ccc(O)cc1)C(N)=O [Example 35] | > 4000 nM | 460 nM | 5.1 nM | 630 nM | 0.92 nM |  |  |  |  | 
N=C(NCc1cccc2ccccc12)NC(=O)N1CCC2(CC1)C(=O)NCN2c1ccccc1 [Example 36, N-(1-Naphthylmethyl)-N′-[(4-oxo-1-phenyl-1,3,8-triazaspiro[4.5]dec-8yl)carbonyl]guanidine] | 580 nM | 740 nM | 11 nM | 340 nM | 33 nM |  |  |  |  | 
N=C(NCc1cccc2ccccc12)NC(=O)NC1CCCc2ccccc21 (stereo not drawn) [Example 40, 1-{[({Imino[(1-naphthylmethyl)amino]methyl}amino)carbonyl]amino}-1,2,3,4-tetrahydronaphthalene] | 540 nM | 590 nM | 24 nM | 1700 nM | 4.1 nM |  |  |  |  | 
N=C(NCc1cccc2ccccc12)NC(=O)NC[C@@H]1CCCC[C@@H]1O [Example 41, 1-({[([({[(1S,2S)2-Hydroxycyclohexyl]methyl}amino)carbonyl]amino}(imino)methyl]amino}methyl)naphthalene] | 54 nM | 340 nM | 8.9 nM | 1070 nM | 2 nM |  |  |  |  | 
N=C(NCc1cccc2ccccc12)NC(=O)NC1CCc2ccccc21 (stereo not drawn) [Example 43, 1-({[{[(2,3-Dihydro-1H-inden-1-ylamino)carbonyl]amino}(imino)methyl]amino}methyl)naphthalene] | 630 nM | 900 nM | 22 nM | 2190 nM | 4.8 nM |  |  |  |  | 
COc1ccccc1CN1CCC(CNC(=O)NC(=N)NCc2cccc3ccccc23)CC1 [Example 45, 4-({[({Imino[(1-naphthylmethyl)amino]methyl}amino)carbonyl]amino}methyl)-1-(2-methoxybenzyl)piperidine] | 600 nM | 1550 nM | 21 nM | 500 nM | 3.9 nM |  |  |  |  | 
